Source: patent publication US7569724B2, “Carbamic acid compounds comprising an amide linkage as HDAC inhibitors” (Topotarget UK Limited, priority 2000, dated 2009)
Structures can show the parent of a compound that is named as a salt. Where two headings read alike, the source gives them in different places.

Tests used:
HDAC (HeLa cell extract) = test: Primary assay: deacetylase activity, HeLa cell extract as source of HDAC; assay type: biochemical, human; conditions: HeLa cell extract; for HDAC Inhibition HeLa, percent / percent HDAC inhibition at the stated concentration: @ 500 nM
Text: Briefly, this assay relies on the release of radioactive acetate from a radioactively labelled histone fragment by the action of HDAC enzyme. Test compounds, which inhibit HDAC, reduce the yield of radioactive acetate. Signal (e.g., scintillation counts) measured in the presence and absence of a test compound provide an indication of that compound's ability to inhibit HDAC activity. Decreased activity indicates increased inhibition by the test compound.
The histone fragment was an N-terminal sequence from histone H4, and it was labelled with radioactively labelled acetyl groups using tritiated acetylcoenzyme A (coA) in conjunction with an enzyme which is the histone acetyltransferase domain of the transcriptional coactivator p300. […] The acetylated peptide was then separated from free acetyl coA by size exclusion chromatography on Sephadex G-15 (Sigma G-15-120), using distilled H2O as the mobile phase.
After purification of the radiolabelled histone fragment, it was incubated with a source of HDAC (e.g., an extract of HeLa cells (a rich source of HDAC), recombinantly produced HDAC1 or HDAC2) and any released acetate was extracted into an organic phase and quantitatively determined using scintillation counting. By including a test compound with the source of HDAC, that compound's ability to inhibit the HDAC was determined.
The HeLa cell extract was made from HeLa cells (ATCC Ref. No. CCL-2) by freeze-thawing three times in 60 mM TrisCl pH 8.0, 450 mM NaCl, 30% glycerol. Two cell volumes of extraction buffer were used, and particulate material was centrifuged out (20800 g, 4° C., 10 min). The supernatant extract having deacetylase activity was aliquotted and frozen for storage.
A source of HDAC (e.g., 2 μL of crude HeLa extract, 5 μL of HDAC1 or HDAC2; in elution buffer, as above) was incubated with 3 μL of radioactively labelled peptide along with appropriate dilutions of candidate compounds (1.5 μL) in a total volume of 150 μL of buffer (20 mM Tris pH 7.4, 10% glycerol). The reaction was carried out at 37° C. for one hour, after which the reaction was stopped by adding 20 μL of 1 M HCl/0.4 M sodium acetate. […] Radioactivity was measured using a Tri-Carb 2100TR Liquid Scintillation Analyzer (Packard).
Percent activity (% activity) for each test compound was calculated as: % activity={(S^C−B)/(S^o−B)}×100 wherein S^C denotes signal measured in the presence of enzyme and the compound being tested, S^o denotes signal measured in the presence of enzyme but in the absence of the compound being tested, and B denotes the background signal measured in the absence of both enzyme and compound being tested.

HeLa cells = test: Secondary assay: cell proliferation WST-1, HeLa; assay type: cell-based; conditions: Homo sapiens, 48 h, read-out: Cell Proliferation Inhibition WST-1 (IC50 unless otherwise specified) HeLa
Procedure: Compounds with HDAC inhibition activity, as determined using the primary assay, were subsequently evaluated using secondary cell-based assays. The following cell lines were used:
HeLa—Human cervical adenocarcinoma cell line (ATCC ref. No. CCL-2).
Cells were plated in 96-well plates at 3-10×10^3 cells/well in 100 μL of culture medium. The following day, different concentrations of candidate compounds were added and the cells incubated at 37° C. for 48 h. Subsequently, 10 μL/well of WST-1 reagent was added and the cells reincubated for 1 hour. After the incubation time, absorbance was measured.
WST-1 is a tetrazolium salt which is cleaved to formazan dye by cellular enzymes. An expansion in the number of viable cells results in an increase in the overall activity of mitochondrial dehydrogenases in the sample. This augmentation in the enzyme activity leads to an increase in the amount of formazan dye formed, which directly correlates to the number of metabolically active cells in the culture. The formazan dye produced is quantified by a scanning multiwell spectrophotometer by measuring the absorbance of the dye solution at 450 nm wavelength (reference wavelength 690 nm).
Percent activity (% activity) in reducing the number of viable cells was calculated for each test compound as: % activity={(S^C−B)/(S^o−B)}×100 wherein S^C denotes signal measured in the presence of the compound being tested, S^o denotes signal measured in the absence of the compound being tested, and B denotes the background signal measured in blank wells containing medium only.
IC50 values were calculated using the software package Prism 3.0 (GraphPad software Inc., San Diego, Calif.), setting top value at 100 and bottom value at 0.

[1] = read-out: HDAC Inhibition (IC50 unless otherwise specified) HeLa

Row | melting point [°C] | SMILES | HDAC Inhibition HeLa, percent (HDAC (HeLa cell extract)) [% @ 500 nM] | other results
1 | 168 to 170 | O=C(/C=C/c1ccncc1)NCCCCCC(=O)NO (as salt: oxalate) [PX106521, (E)-N-(5-Hydroxycarbamoylpentyl)-3-pyridin-4-yl-acrylamide oxalate] |  | 
2 | 126 to 128 | O=C(/C=C/c1ccccn1)NCCCCCC(=O)NO (as salt: oxalate) [PX106528, (E)-N-(5-Hydroxycarbamoylpentyl)-3-pyridin-2-yl-acrylamide oxalate] |  | 
3 | 157 to 159 | O=C(/C=C/c1cccnc1)NCCCCCC(=O)NO (as salt: oxalate) [PX116231, E-N-(5-Hydroxycarbamoyl-pentyl)-3-pyridin-3-yl-acrylamide oxalate] |  | 
4 | 127 to 128 | O=C(CCCCCNC(=O)CCc1ccco1)NO [PX105827, 6-(3-Furan-2-yl-propionylamino)-hexanoic acid hydroxyamide] | 34 | percent HDAC inhibition at the stated concentration (HDAC (HeLa cell extract); comparative tables): 34% @ 500 nM
5 | 226 to 227 | O=C(CCCCCNC(=O)Cc1ccc(-c2ccccc2)cc1)NO [PX106488, 6-(2-Biphenyl-4-yl-acetylamino)-hexanoic acid hydroxyamide] | 51 | percent HDAC inhibition at the stated concentration (HDAC (HeLa cell extract); comparative tables): 51% @ 500 nM
6 | 155 to 156 | O=C(CCCCNC(=O)c1ccc2ccccc2c1)NO [PX106492, Naphthalene-2-carboxylic acid (4-hydroxycarbamoyl-butyl)-amide] | 42 | 
7 | 168 to 169 | O=C(CCCCCNC(=O)c1ccc(I)cc1)NO [PX106494, N-(5-Hydroxycarbamoylpentyl)-4-iodobenzamide] |  | IC50 (HDAC (HeLa cell extract); [1]): 100 nM
8 | 139.5 to 141 | O=C(CCCCCNC(=O)c1ccc([N+](=O)[O-])cc1)NO [PX106495, N-(5-Hydroxycarbamoylpentyl)-4-nitrobenzamide] | 34 | 
9 | 234 to 236 | N#Cc1ccc(C(=O)NCCCCCC(=O)NO)cc1 [PX106497, 4-Cyano-N-(5-hydroxycarbamoylpentyl)-benzamide] | 30 | 
10 | 107 | O=C(CCCCCNC(=O)CCc1ccccc1)NO [PX106516, 6-(3-Phenylpropionylamino)hexanoic acid hydroxyamide] | 27 | 
11 | 152 to 154 | COc1ccc(/C=C/C=C/C(=O)NCCCCCC(=O)NO)cc1 [PX106524, (2E,4E)-(4-Methoxyphenyl)penta-2,4-dienoic acid (5-hydroxycarbamoylpentyl)-amide] | 57 | 
12 | 127 to 128 | O=C(CCCCCNC(=O)C/C=C/c1ccccc1)NO [PX116211, (E)-N-[6-(Hydroxyamino)-6-oxohexyl]-4-phenyl-3-butenamide] |  | 
13 | 152 to 153 | O=C(/C=C/c1cccc(NC(=O)CCCc2ccccc2)c1)NO [PX116212, (E)-N-Hydroxy-3-{3-[(4-phenylbutanoyl)amino]phenyl}-2-propenamide] | 72 | 
14 | 133 | COc1ccc(C(=O)NCCCCCC(=O)NO)cc1OC [PX116213, N-[6-(Hydroxyamino)-6-oxohexyl]-3,4-dimethoxybenzamide] | 48 | 
15 | 130 to 131.5 | O=C(CCCCCNC(=O)Cc1c[nH]c2ccccc12)NO [PX116214, 6-(2-1H-lndol-3-yl-acetylamino)-hexanoic acid hydroxyamide] | 35 | 
16 | 164 to 166 | O=C(CCCCCNC(=O)c1ccc(Br)cc1)NO [PX116215, 4-Bromo-N-(5-hydroxycarbamoyl-pentyl)-benzamide] | 70 | 
17 | 121 to 122.5 | O=C(CCCCC(=O)NCCc1c[nH]c2ccccc12)NO [PX116217, Hexanedioic acid hydroxyamide [2-(1H-indol-3-yl)-ethyl]-amide] | 17 | 
18 | 115 to 116.5 | O=C(CCCCCCC(=O)Nc1cccc2ccccc12)NO [PX116218, Octanedioic acid hydroxyamide naphthalen-1-ylamide] |  | IC50 (HDAC (HeLa cell extract); [1]): 33 nM
19 | 122 to 124 | O=C(CCCCCNC(=O)c1ccc(Br)o1)NO [PX116221, 5-Bromo-furan-2-carboxylic acid (5-hydroxycarbamoyl-pentyl)-amide] | 72 | 
20 | 120 to 121.5 | O=C(CCCCCCC(=O)NCCc1cccc2ccccc12)NO [PX116224, Octanedioic acid hydroxyamide (2-naphthalen-1-yl-ethyl)-amide] | 78 | 
21 |  | O=C(/C=C/c1ccc(NC(=O)Cc2cccc3ccccc23)cc1)NO [PX116244, (E)-N-Hydroxy-3-(4-{[2-(1-naphthyl)acetyl]amino}phenyl)-2-propenamide] |  | IC50 (HDAC (HeLa cell extract); [1]): 22 nM; IC50 (HeLa cells): < 310 nM
22 |  | O=C(/C=C/c1ccc(-c2cc(C(F)(F)F)cc(C(F)(F)F)c2)o1)NCCCCCC(=O)NO [PX117224, (E)-3-{5-[3,5-bis(trifluoromethyl)phenyl]-2-furyl}-N-[6-(hydroxyamino)-6-oxohexyl]2-propenamide] | 81 | IC50 (HeLa cells): 26000 nM
23 |  | O=C(/C=C/C=C/c1cccc2ccccc12)NCCCCCC(=O)NO [PX117237, (2E)(4E)-5-Naphthalen-1-yl-penta-2,4-dienoic acid (5-hydroxycarbamoylpentyl)amide] |  | IC50 (HDAC (HeLa cell extract); [1]): 63 nM; IC50 (HDAC (HeLa cell extract); comparative tables, read-out: HeLa IC50): 63 nM; IC50 (HeLa cells): 17000 nM
24 |  | Cn1cccc1/C=C/C(=O)NCCCCCC(=O)NO [PX117239, E-3-(1-Methyl-1H-pyrrol-2-yl)-N-(5-hydroxycarbamoylpentyl)-acrylamide] | 85 | IC50 (HeLa cells): 10000 nM
25 |  | C/C(=C\C(=O)NCCCCCC(=O)NO)c1ccccc1 [PX117254, E-3-Phenylbut-2-enoic acid (5-hydroxycarbamoylpentyl)-amide] |  | IC50 (HDAC (HeLa cell extract); [1]): 40 nM; IC50 (HeLa cells): 6600 nM
26 |  | O=C(/C=C/C=C/c1ccccc1Cl)NCCCCCC(=O)NO [PX117255, (2E)(4E)-5-(2-Chlorophenyl)penta-2,4-dienoic acid (5-hydroxycarbamoylpentyl)amide] |  | IC50 (HDAC (HeLa cell extract); [1]): 50 nM; IC50 (HeLa cells): 18000 nM
27 | 155 to 156.5 | O=C(CCCCCCC(=O)NC(c1ccccc1)c1ccccc1)NO [PX117417, N^1-benzhydryl-N^8-hydroxyoctanediamide] | 56 | 
28 | 126 to 126.5 | O=C(CCCCCCC(=O)NCc1ccccc1)NO [PX117418, Octanedioic acid benzylamide hydroxyamide] | 39 | 
29 | 113 to 115 | O=C(CCCCCNC(=O)Cc1csc2ccccc12)NO [PX117442, 6-(2-Benzothiophen-3-yl-acetylamino)-hexanoic acid hydroxyamide] | 31 | 
